From article PMC12747935 (2025)

Legend:
Test in all cases: ribozyme self-cleavage, PAGE with SYBR Gold
[1] = system: Motif_9307 allosteric ribozyme (RNA, riboswitch) GGGCGUAGCCUGAUGAGACUUAUAAUUUUUGAUAUAGAAAUAAAUUACAGUAGUUACACGCAAUAACCGUUGGUCCAAAUAGUAUCCUGUCCUGAGCCGACCGAGUCGAAACGUGGUGAAAGCCACGUCGCUGCGCCGCAGCUGUGGAA; conditions: 100 mM KCl, 20 mM MgCl2; 30 mM HEPES pH 7.5, 25°C, 30 min; no change in cleavage
[2] = system: ThiC-TPP allosteric ribozyme (bridge of four base pairs) (RNA, riboswitch) GGGCGUAGCCUGAUGAGACUCGGGGUGCCCUUCUGCGUGAAGGCUGAGAAAUACCCGUAUCACCUGAUCUGGAUAAUGCCAGCGUAGGGAAGUCGAAACGUGGUGAAAGCCACGUCGCUGCGCCGCAGCUGUGGAA; conditions: 100 mM KCl, 20 mM MgCl2, 30 mM HEPES pH 7.5, 25°C, 30 min
[3] = system: ThiC-TPP allosteric ribozyme (bridge of three base pairs) (RNA, riboswitch) GGGCGUAGCCUGAUGAGCUCGGGGUGCCCUUCUGCGUGAAGGCUGAGAAAUACCCGUAUCACCUGAUCUGGAUAAUGCCAGCGUAGGGAAGCGAAACGUGGUGAAAGCCACGUCGCUGCGCCGCAGCUGUGGAA; conditions: 100 mM KCl, 20 mM MgCl2; 30 mM HEPES pH 7.5, 25°C, 30 min; apparent; text gives only 1 to 3 μM for both bridges
[4] = system: NCU-TPP allosteric ribozyme (bridge of three base pairs) (RNA, riboswitch) GGGCGUAGCCUGAUGAGACUACGGGCGCUGUCGAAAGACAGCUGAGAUUGUACCGUGAUUACUCGAUCAAGUUAAUGCUUGCGUGAGAAACGUCGAAACGUGGUGAAAGCCACGUCGCUGCGCCGCAGCUGUGGAA; conditions: 100 mM KCl, 20 mM MgCl2, 30 mM HEPES pH 7.5, 25°C, 30 min, half-maximal cleavage change
[5] = system: THEO allosteric ribozyme (RNA, aptamer) GGGCGUAGCCUGAUGAGCCCUAAUACCAGCCGAAAGGCCCUUGGCAGUAGAGCGAAACGUGGAAACACGUCGCUGCGAGCUGUGG; conditions: 100 mM KCl, 20 mM MgCl2, 30 mM HEPES pH 7.5, 25°C, 30 min; for binding: 100 μM compound

For `CSCC[C@H](N)C(=O)O`, the binding [1] was “no”.

For `C[S+](CC[C@H](N)C(=O)O)C[C@H]1O[C@@H](n2cnc3c(N)ncnc32)[C@H](O)[C@@H]1O` (stereo partly shown), the binding [1] was “no”.

In the case of `Cc1ncc(C[n+]2csc(CCO)c2C)c(N)n1`, the binding ([2]; cleavage fraction 0.235 against 0.403 without ligand) is reported as “yes”.

In the case of `Cc1ncc(C[n+]2csc(CCOP(=O)(O)OP(=O)(O)O)c2C)c(N)n1`, the “apparent K D” value ([2]; apparent, half-maximal cleavage inhibition) is reported as 1200 ± 200 nM, the “K D” value [3] is reported as 3000 ± 1100 nM and the “apparent K D” value [4] is reported as 2400 ± 1400 nM.

`Cn1c(=O)[nH]c(=O)c2[nH]cnc21` was tested, and the binding ([5]; cleavage fraction 0.421 against 0.163 without ligand) was “yes”.

In the case of `Cn1c(=O)[nH]c2nc[nH]c2c1=O`, the binding ([5]; cleavage fraction 0.300 against 0.163 without ligand) is reported as “weak”.

In the case of `Cn1c(=O)c2[nH]cnc2n(C)c1=O`, the “apparent K D” value ([5]; apparent, half-maximal cleavage induction) is reported as 3100 ± 200 nM.

With `NC(=O)CC[C@H](N)C(=O)O` the binding [1] was “no”.

`N[C@@H](CCS)C(=O)O` was tested, and the binding [1] was “no”.

`N[C@@H](Cc1cnc[nH]1)C(=O)O` was tested, and the binding ([2]; cleavage fraction 0.393 against 0.403 without ligand) was “no”.

`Nc1ncnc2c1ncn2[C@@H]1O[C@H](CSCC[C@H](N)C(=O)O)[C@@H](O)[C@H]1O` was tested, and the binding [1] was “no”.
